Results as given in US20030185792A1, “Morphogen analogs of bone morphogenic proteins” (Curis, Inc., priority 1996, published 2003).
Entries after “also recorded” stand apart in the source; their conditions may differ. Bridge positions count the residues as written; N and C are the ends. Ends that are not written are not given here.

Tests used:
ROS cells = experiment: ROS cell based alkaline phosphatase bioassay; design: species or system rat; details: for effect on OP-1 induced cell responsiveness (agonist/antagonist behaviour): peptide together with OP-1; for IC50: peptide together with OP-1 (1.33 nM), read-out: peptide concentration giving 50% inhibition of cellular responsiveness to OP-1; for effect on basal cell responsiveness (alkaline phosphatase activity): no OP-1
Protocol: In a first series of experiments, increasing concentrations of peptides F2-2 (FIG. 9A), F2-3 (FIG. 9B), Hn-2 (FIG. 9C) and Hc-2 (FIG. 9D) were added to ROS cells either alone (open bars) or in combination with 40 ng/ml soluble OP-1 (filled bars) and their effect on alkaline phosphatase activity measured. Soluble OP-1 is the form of OP-1 in which the pro-domain is still attached to the mature portion of OP-1 (see WO 94/03600). A basal alkaline phosphatase activity is shown by the line and represents the alkaline phosphatase activity of cells incubated in the absence of both soluble OP-1 and peptide.
(§1) Assay of peptides: The receptor-binding activities of OP-1 synthetic peptides were determined by a radio-ligand receptor assay using ^125I-labeled OP-1 as ligand, and an OP-1 receptor-enriched plasma membrane fraction of ROS cells. The assay is based on competition between radiolabeled OP-1 and unlabeled OP-1 or peptide for binding to membrane-bound receptor. A well characterized ROS cell based in vitro bio-assay was used to examine the effects of OP-1 peptides on basal as well as OP-1 induced cellular alkaline phosphatase activity.
i. ROS Cell Based Alkaline Phosphatase Assay: OP-1 synthetic peptides that bind OP-1 receptors are further analyzed by in vitro bioassay. This allows defining the role of OP-1 peptides at the receptor-binding site. Some of the OP-1 peptides that effectively interact with receptors could inhibit OP-1 induced target cell responsiveness, thereby acting as functional antagonists. Alternatively, they may mimic OP-1 functions inducing alkaline phosphatase activity in ROS cells. Creative BioMolecules has developed and fully validated ROS cell in vitro assay for OP-1. An assay procedure as described earlier is essentially followed to determine the biological activities of OP-1 peptides. In a typical experiment, rat Osteosarcoma (17/2.8) cells are plated in 96 well plates (3.0×10^4 cells/well) and incubated overnight at 37° C. in 5-6% CO2 incubator. Next day, the plates are examined to make sure that cells are healthy & confluent. Cells are treated with increasing concentrations of OP-1 standard (1-10,000 ng/ml) or OP-1 synthetic peptides (0.02-200 μM) alone or with OP-1 standard prepared in medium containing 1% FBS and incubated for 2 days at 37° C. in 5-6% CO2 incubator. The cellular content of alkaline phosphatase activity is determined by the method of Reddi and Huggins. Enzyme estimations are routinely carried out in 96 well plates. Following removal of culture medium, cells are washed with pre-warmed PBS (150 μl) and further incubated in 100 ul of pre-warmed 1% Triton X-100 for 30 minutes at 37 C. Plates are centrifuged for 10 minutes at full speed, and recovered samples (each 15 μl) are assayed for enzyme activity by adding 90 ul p-nitrophenyl phosphate (Sigma) as a substrate in 0.05 M glycine-NaOH buffer, pH 9.3 and incubating for 20 minutes at 37° C. The reaction is stopped by adding 75 μl of 0.2 N NaOH/well and absorbance at 405/490 nm is measured on a Dynatech MR 700 plate reader. Results are expressed as concentration of peptide inhibitor (with antagonist activity) required to give 50% inhibition of maximum response to OP-1 standard. On the other hand, the activities of peptides that stimulate cell responsiveness (with agonist activity) are expressed relative to OP-1 standard. FIG. 23 illustrates the dose-related effects of OP-1 preparations on stimulation of alkaline phosphatase activity as determined in ROS cell based in vitro assay.

[1] = system: OP-1 receptor-enriched plasma membrane fraction of ROS cells; experiment: Radioligand receptor assay: displacement of 125I-labeled OP-1 from ROS cell plasma membranes; type: binding, rat; details: for effect on binding of 125I-labeled OP-1 to the receptor: Example 3; for ability to displace 125I-labeled soluble OP-1 from ROS cell membranes: Example 2, FIGS. 10A and 10B
Protocol: In a second series of experiments, the ability of unlabeled soluble OP-1 and unlabeled peptides F1-2, F2-2, F2-3, H-n2 and H-c2 to displace ^125I labeled soluble OP-1 from ROS cell membranes was measured. The activities of peptides F2-2 and F2-3 relative to soluble OP-1 are shown in FIG. 10A, and the activities of peptides Fi-2, H-n2 and H-c2 relative to soluble OP-1 are shown in FIG. 10B. OP-1 receptor-enriched plasma membranes of ROS cells were incubated for 20 hrs at 4° C. with ^125I-labeled soluble OP-1 and unlabeled peptide. Receptor bound material was separated from unbound material by centrifugation at 39,500×g. The resulting pellet was harvested and washed with 50 mM HEPES buffer, pH 7.4 containing 5 mM MgCl2 and 1 mM CaCl2 Radioactivity remaining in the pellet was determined by means of a gamma counter.
as §1
i. Radio-receptor Assay: The receptor-binding activities of various OP-1 synthetic peptides can be determined by an equilibrium displacement binding isotherm assay using ^125I-labeled OP-1 as ligand and OP-1 receptor-enriched plasma membrane fraction of ROS cells. Highly purified OP-1 can be radioiodinated to a specific activity of 70-78 μCi/ug by a modified procedure of lactoperoxidase method. The percent bindability of radioiodinated OP-1 to excess receptor is 30-37%. Plasma membranes enriched with OP-1 receptors from ROS cells can be isolated as is known in the art. […] In a typical assay, fixed amounts of ^125I-labeled sol. OP-1 (˜80,000 cpm) are incubated with fixed amount of receptor-enriched plasma membrane fraction in the presence (5 μg, for non-specific binding) or absence of excess unlabeled OP-1 (for total binding). Displacement curves are generated with increasing concentrations of OP-1 peptide (0.032-50 μM) or OP-1 standard preparation (5-2000 ng). The assay incubations are carried out in a reaction volume of 300 μl with shaking for 22 hrs. at 4° C. Separation of bound and free ^125I-labeled OP-1 is by centrifugation (39,500×g, 30 minutes). The supernatants are aspirated and pellets are washed before counting in a gamma counter (Packard Instr., Downers Grove, Ill.). The concentration of OP-1 peptide required to give 50% inhibition of total specific binding of ^125I-labeled OP-1 (ED50) is calculated from competitive data.

[2] = molecular target: OP-1 receptor of ROS cells (OP-1 receptor-enriched plasma membrane fraction of ROS cells) (rat); experiment: equilibrium binding of ^125I-OP-1 to OP-1 receptor-enriched ROS cell plasma membranes
[3] = molecular target: OP-1 receptor of ROS cells (OP-1 receptor-enriched plasma membrane fraction of ROS cells) (rat); experiment: binding of ^125I-OP-1 to excess receptor (ROS cell plasma membranes)
[4] = molecular target: OP-1 receptor of ROS cells (OP-1 receptor-enriched plasma membrane fraction of ROS cells) (rat)

Molecule | effect on OP-1 induced cell responsiveness (agonist/antagonist behaviour) (ROS cells; Example 3) | IC50 (ROS cells; Example 3) | effect on binding of 125I-labeled OP-1 to the receptor [1] | effect on basal cell responsiveness (alkaline phosphatase activity) (ROS cells; Example 3, peptide alone) | ability to displace 125I-labeled soluble OP-1 from ROS cell membranes [1] | other results
F1-1: SEQ ID No. 5; cyclized peptide covering the complete finger 1 region of OP-1 (CELYVSFRDLGWQDWIIAPEGYAAYC; cyclized; listed as Homo sapiens) | antagonists | 20 µM | interfered |  |  | peptide concentrations effective to inhibit basal cellular responsiveness (ROS cells; Example 3, peptide alone): 52 to 260 µM
F1-2: SEQ ID No. 6; 15-residue finger 1 loop region peptide cyclized at the ends (CFRDLGWQDWIIAPC; cyclized; listed as Homo sapiens) | relatively weak antagonist | 10 µM | relatively weak activity | weakly inhibiting | little or no ability to displace | effect on OP-1 induced cell responsiveness (agonist/antagonist behaviour) (ROS cells; Example 3, listed as Fi-2): antagonists; peptide concentration required to inhibit binding of 125I-labeled OP-1 to the receptor ([1]; Example 3, FIG. 14): 179 µM; effect on binding of 125I-labeled OP-1 to the receptor ([1]; listed as Fi-2): interfered
F2-1: SEQ ID No. 16; covers the entire finger 2 region of OP-1, cyclized close to the knot region (CLNAISVLYFDDSSNVILKKYRNMVVRC; disulfide 1-28 (inferred); listed as Homo sapiens) | effectively inhibited | 8 µM |  | effectively inhibited |  | 
F2-2: SEQ ID No. 17; 9 residues at the tip of finger 2 including 2 Asp residues, ends cyclized (CYFDDSSNVIC; cyclized; listed as Homo sapiens) | weak agonist; also recorded: potentiating the cell responsiveness to OP-1 |  | effectively competed |  | cannot completely displace | behaviour in the alkaline phosphatase assay (agonist/antagonist) (ROS cells; Example 2, alone or with 40 ng/ml soluble OP-1): weak OP-1 agonists; effect on responsiveness to OP-1 (ROS cells; Example 3, at higher peptide concentrations (above 0.6-60 μM)): inhibited the responsiveness to OP-1; potentiation of OP-1 induced cell responsiveness (ROS cells; Example 3, peptide 0.6-60 μM, FIG. 16): 20%; peptide concentrations at which OP-1 induced responsiveness is potentiated (ROS cells; Example 3, with OP-1): 0.6 to 60 µM; increase of alkaline phosphatase activity relative to soluble OP-1 alone (ROS cells; peptide about 60 μM with 40 ng/ml soluble OP-1, FIG. 9A): about 20%; effect on basal alkaline phosphatase level (ROS cells; peptide alone, about 60 μM, Example 2, FIG. 9A): double
F2-2c: SEQ ID No. 18; control cyclized peptide, 9 residues of F2-2 in reverse order (CIVNSSDDFYC; disulfide 1-11 (inferred); listed as Homo sapiens) [reference compound] | no effect |  | inactive | no effect |  | 
H-1: SEQ ID No. 11; covers the whole Heel region, cyclized near the knot region (CAFPLNSYMNATNHAIVQTLVHFINPETVPKC; disulfide 1-32 (inferred); listed as Homo sapiens) | weak antagonist; also recorded: antagonists |  | interfered | effective only at very high concentrations |  | peptide concentrations required to inhibit the OP-1 induced cell response (ROS cells; Example 3, with OP-1): 44 to 220 µM
H-C2: SEQ ID No. 13; 7 residues (plus Cys) in the loop on the C-terminal end of the Heel helix (CCFINPETVCC; listed as Homo sapiens) | antagonists | 5 µM | interfered | inhibiting the basal | little or no ability to displace | overall judgement of activity (lead peptides) (ROS cells; Example 3 summary, antagonistic (H-C2) and modulating (F2-3) activity): highly active; peptide concentration at which the activity of soluble OP-1 is antagonized (ROS cells; with 40 ng/ml soluble OP-1, FIG. 9D): greater than 5 μM; effect on binding of 125I-labeled OP-1 to the receptor ([1]; peptide at 8 μM, FIG. 14): potentiated
H-N2: SEQ ID No. 12; 11 residues (plus Cys) in the loop on the N-terminal end of the Heel helix (CLNSYMNATNHAC; listed as Homo sapiens) | not effective |  | failed to inhibit | not effective | little or no ability to displace | effect on alkaline phosphatase activity (ROS cells; either alone or in combination with soluble OP-1, FIG. 9C): little or no effect
OP-1 (osteogenic protein-1), mature human OP-1 (ligand, radio-iodinated (^125I) when used as tracer; unlabeled when used as competitor or in the bioassay) CKKHELYVSFRDLGWQDWIIAPEGYAAYYCEGECAFPLNSYMNATNHAIVQTLVHFINPETVPKPCCAPTQLNAISVLYFDDSSNVILKKYRNMVVRACGCH |  |  |  |  |  | Ka [2]: 4.38e+09 M⁻¹; average OP-1 binding capacity (pmol/mg protein) [2]: 3.6; percent bindability to excess receptor [3]: 30 to 37%
CELYVSFRDLGWQDWIIAPEGYAAYC (disulfide 1-26) [Peptide F1-1] |  |  |  |  |  | IC50 (peptide concentration giving 50% inhibition of cellular responsiveness to OP-1), ROS cell alkaline phosphatase [4]: 20 µM
